Assay results: patent publication US5726319A, “Biphenyl substituted dipeptide analogs promote release of growth hormone” (Merck & Co., Inc., priority 1995, dated 1998)
Counter-ions that a name gives are not always drawn.

test system: rat pituitary cells; assay: growth hormone secretion in rat pituitary cell cultures (GH release, RIA); assay type: cell-based; conditions: 0.25 h; GH release from cultured rat anterior pituitary cells, 15 min incubation at 37° C., rat GH measured by double antibody RIA; read-out: ED50 (the source's name)
Method: The bioassay employed for the determination of growth hormone secretion in rat pituitary cell cultures has been previously described--Cheng, K.; Chan, W. W.-S; Barreto, A.; Convey, E. M.; Smith, R. G. Endocrinology 124: 2791-2798 (1989)--and is summarized here: The Wistar male rats (150-200 grams) were obtained from Charles River Laboratories (Wilmington, Mass). Rats were maintained at a constant temperature (25° C.) on a 14-hr light, 10-hr dark cycle. Rat chow and water were available ad libitum. The animals were sacrificed by decapitation and anterior lobes of the pituitary quickly removed. Rat pituitary cells were isolated from pituitaries by enzymatic digestion with 0.2% collagenase and 0.2% hyaluronidase in Hank's Balanced Salt Solution. For culture, the cells were suspended in culture medium and adjusted to 1.5×10^5 cells/ml, and 1.0 ml of this suspension was placed in each well of a 24-well tray (Costar, Cambridge, Mass.). Cells were maintained in a humidified 5% CO2 -95% air atmosphere at 37° C. for 3 to 4 days. The culture medium consisted of DMEM containing 0.37% NaHCO3, 10% horse serum, 2.5% fetal bovine serum, 1% non-essential amino acids, 1% glutamine, 1% nystatin, and 0.1% gentamycin. On the day of an experiment, cells were washed twice 11/2 hrs prior to and once more immediately before the start of the experiment with the above culture medium containing 25 mM HEPES, pH 7.4. GH release was initiated by adding 1 ml of fresh medium containing test agents to each well in quadruplicate. Incubation was carded out at 37° C. for 15 min. After incubation, medium was removed and centrifuged at 2,000×g for 15 min to remove any cellular material. The supernatant fluid was removed and assayed for GH content. Rat GH in culture medium was measured by a double antibody RIA procedure using materials obtained from Dr. A. F. Parlow (Harbor-UCLA medical Center, Torrance, Calif.) and expressed in terms of the standard rat GH RP-2. ED50 values for test compounds were computed by fitting a four-parameter logistic function to the dose-response curve. Least squares estimates of the four-parameter logistic function coefficients and their variances were derived using the iterative algorithm described by Bates and Watts.

Molecule	EC50
CNC(=O)Nc1ccccc1-c1ccc(CNC(=O)[C@@H](COCc2ccccc2)NC(=O)C(C)(C)N)cc1 [Example 23, (R)-α-[(2-Amino-2-methyl-1-oxopropyl]amino]-N-[[2'-[[(methylamino)carbonyl]amino][1,1'-biphenyl]-4-yl]methyl]-3-[(phenylmethyl)oxy]propanamide, trifluoroacetate]	> 0.5 µM
CC(C)(N)C(=O)N[C@H](Cc1c[nH]c2ccccc12)C(=O)NCc1ccc(-c2ccccc2NC(=O)NCCO)cc1 [Example 16, (R)-α-[(2-Amino-2-methyl-1-oxopropyl)amino]-N-[[2'-[[(2-hydroxyethylamino)carbonyl]amino][1,1'-biphenyl]-4-yl]-methyl]-1H-indole-3-propanamide, trifluoroacetate]	> 0.5 µM
CC[C@@H](NC(=O)CC(C)(C)N)C(=O)N(Cc1ccc(-c2ccccc2-c2nnn[nH]2)cc1)c1ccccc1 [Example 4, (R)-2-[(3-Amino-3-methyl-1-oxobutyl)amino]-N-phenyl-N-[[2'-(1H-tetrazol-5-yl)[1,1'-biphenyl]-4-yl]methyl]butanamide, trifluoroacetate]	> 0.5 µM
CC(C)(N)CC(=O)N[C@H](CCc1ccccc1)C(=O)NCc1ccc(-c2ccccc2-c2nnn[nH]2)cc1 [Example 1, (R)-α-[(3-Amino-3-methyl-1-oxobutyl)amino]-N-[[2'-(1H-tetrazol-5-yl)[1,1'-biphenyl]-4-yl]methyl]benzene-butanamide, trifluoroacetate]	> 0.5 µM
CN(Cc1ccc(-c2ccccc2-c2nnn[nH]2)cc1)C(=O)[C@@H](Cc1c[nH]c2ccccc12)NC(=O)C(C)(C)N [Example 13, (R)-α-[(2-Amino-2-methyl-1-oxopropyl)amino]-N-methyl-N-[[2'-(1H-tetrazol-5-yl)[1,1'-biphenyl]-4-yl]methyl]-1H-indole-3-propanamide, trifluoroacetate]	> 0.5 µM
CNC(=O)Nc1ccccc1-c1ccc(CNC(=O)[C@@H](Cc2c[nH]c3ccccc23)NC(=O)CC(C)(C)N)cc1 [Example 15, (R)-α-[(3-Amino-3-methyl-1-oxobutyl)amino]-N-[[2'-[[(methylamino)carbonyl]amino][1,1'-biphenyl]-4-yl]-methyl]-1H-indole-3-propanamide, trifluoroacetate]	> 0.5 µM
CC(C)(N)CC(=O)N[C@H](Cc1ccccc1)C(=O)NCc1ccc(-c2ccccc2-c2nnn[nH]2)cc1 [Example 2, (R)-α-[(3-Amino-3-methyl-1-oxobutyl)amino]-N-[[2'-(1H-tetrazol-5-yl)[1,1'-biphenyl]-4-yl]methyl]benzene-propanamide, trifluoroacetate]	< 0.5 µM
CNC(=O)Nc1ccccc1-c1ccc(CNC(=O)[C@@H](Cc2c[nH]c3ccccc23)NC(=O)C(C)(C)N)cc1 [Example 6, (R)-α-[(2-Amino-2-methyl-1-oxopropyl)amino]-N-[[2'-[[(methylamino)carbonyl]amino][1,1'-biphenyl]-4-yl]methyl]-1H-indole-3-propanamide, trifluoroacetate]	> 0.5 µM

same assay, conditions: GH release from cultured rat anterior pituitary cells, 15 min incubation at 37° C., rat GH measured by double antibody RIA; read-out: ED50 (the source's name)

Molecule	EC50
CCCN(Cc1ccc(-c2ccccc2-c2nnn[nH]2)cc1)C(=O)[C@@H](CCc1ccccc1)NC(=O)C(C)(C)N.O=C(O)C(F)(F)F [Example 22, (R)-α-[(2-Amino-2-methyl-1-oxypropyl)amino]-N-[[2'-(1H-tetrazol-5-yl)-[1,1'-biphenyl]-4-yl]methyl]-N-(propyl)benzenebutanamide, trifluoroacetate]	< 0.5 µM
CNC(=O)NCc1ccccc1-c1ccc(CN(C)C(=O)[C@@H](CCc2ccccc2)NC(=O)C(C)(C)N)cc1.O=C(O)C(F)(F)F [Example 9]	< 0.5 µM
CN(Cc1ccc(-c2ccccc2-c2nnn[nH]2)cc1)C(=O)[C@@H](CCc1ccccc1)NC(=O)CC(C)(C)N.O=C(O)C(F)(F)F [Example 8a, (R)-α-[(3-Amino-3-methyl-1-oxybutyl)amino]-N-methyl-N-[[2'-(1H-tetrazol-5-yl)-[1,1'-biphenyl]-4-yl]methyl]benzenebutanamide, trifluoroacetate]	> 0.5 µM
(R)-α-[(2-Amino-2-methyl)-1-oxopropyl]amino-N -methyl-N -[2'-(1H -tetrazol-5-yl)[1,1'-biphenyl]-4-yl]butanamide, trifluoroacetate [Example 34]	< 0.5 µM
COc1ccc(N(Cc2ccc(-c3ccccc3-c3nnn[nH]3)cc2)C(=O)[C@@H](CCc2ccccc2)NC(=O)CC(C)(C)N)cc1.O=C(O)C(F)(F)F [Example 30, (R)-α-[(3-Amino-3-methyl-1-oxybutyl)amino]-N-(4-methoxyphenyl)-N-[[2'-(1H-tetrazol-5-yl)-[1,1'-biphenyl]-4-yl]methyl]-benzenebutanamide, trifluoroacetate]	> 0.5 µM
CCN(Cc1ccc(-c2ccccc2CNC(=O)NC)cc1)C(=O)[C@@H](CCc1ccccc1)NC(=O)CC(C)(C)N.O=C(O)C(F)(F)F [Example 21]	< 0.5 µM
CNC(=O)Nc1ccccc1-c1ccc(CNC(=O)[C@@H](COCc2ccccc2)NC(=O)CC(C)(C)N)cc1.O=C(O)C(F)(F)F [Example 24]	> 0.5 µM
CNC(=O)NCc1ccccc1-c1ccc(CN(C)C(=O)[C@@H](CCc2ccccc2)NC(=O)CCC(C)(C)N)cc1.O=C(O)C(F)(F)F [Example 12]	< 0.5 µM
CNC(=O)NCc1ccccc1-c1ccc(CN(C)C(=O)[C@@H](Cc2c[nH]c3ccccc23)NC(=O)C(C)(C)N)cc1.O=C(O)C(F)(F)F [Example 14]	< 0.5 µM
(R)-α-[(2-Amino-2-methyl)-1-oxopropyl]amino-N-methyl-N-[(2'-[[(methylamino)carbonyl]amino)methyl][1,1'-biphenyl]-4-yl]benzenebutanamide, trifluoroacetate [Example 35]	< 0.5 µM
CN(Cc1ccc(-c2ccccc2-c2nnn[nH]2)cc1)C(=O)[C@@H](CCc1ccccc1)NC(=O)CCC(C)(C)N.O=C(O)C(F)(F)F [Example 11, (R)-α-[(4-Amino-4-methyl-1-oxopentyl)amino]-N-methyl-N-[[2'-(1H-tetrazol-5-yl)[1,1'-biphenyl]-4-yl]methyl]benzenebutan amide, trifluoroacetate]	< 0.5 µM
CC(C)(N)C(=O)N[C@H](COCc1ccccc1)C(=O)NCc1ccc(-c2ccccc2-c2nnn[nH]2)cc1.O=C(O)C(F)(F)F [Example 27, (R)-α-[(2-Amino-2-methyl-1-oxypropyl)amino]-N-[[2'-(1H-tetrazol-5-yl)-[1,1'-biphenyl]-4-yl]methyl]-3-[(phenylmethyl)oxy]propanamide, trifluoracetate]	> 0.5 µM
CNC(=O)Nc1ccccc1-c1ccc(N(C)C(=O)[C@@H](CCc2ccccc2)NC(=O)C(C)(C)N)cc1.O=C(O)C(F)(F)F [Example 33]	> 0.5 µM
CC(C)(N)C(=O)N[C@H](COCc1ccccc1)C(=O)NCc1ccc(-c2ccccc2NC(=O)NCCO)cc1.O=C(O)C(F)(F)F [Example 25, (R)-α-[(2-Amino-2-methyl-1-oxopropyl)amino]-N-[[(2'-[(2-hydroxyethylamino)carbonyl]amino][1,1'-biphenyl]-4-yl]-methyl]-3-[(phenylmethyl)oxy]propanamide, trifluoracetate]	> 0.5 µM
CN(Cc1ccc(-c2ccccc2C#N)cc1)C(=O)[C@@H](CCc1ccccc1)NC(=O)C(C)(C)N.O=C(O)C(F)(F)F [Example 7b, (R)-α-[(2-amino-2-methyl-1-oxypropyl)amino]-N-[[2'-cyano-[1,1'-biphenyl]-4-yl]methyl]-N-methyl-benzenebutanamide trifluoroacetate]	> 0.5 µM
